Source: patent US12421243B2, “Pharmaceutically effective compounds inhibiting selectively the myosin 2 isoforms” (PRINTNET KERESKEDELMI ÉS SZOLGÁLTATÓ KFT., priority 2018, dated 2025)

Key:
[1] = target: recombinant Dictyostelium miozin (Dictyostelium) (Dictyostelium discoideum, UniProt P08799); assay: actomyosin steady state ATPase measurement, Dictyostelium myosin; type: biochemical; conditions: for IC50: concentration required for semi-maximal inhibition of ATPase, read-out: IC50 (μM) Dicty; for % inhibition. complete Dicty: maximum value of inhibition of ATPase activity; for inhibition at 5 µM: read-out: % inhibition at 5 μM (or 10 μM if racemate) Dicty; for inhibition at 50 µM: read-out: % inhibition at 50 μM (or 100 μM if racemate) Dicty
Description: (§1) […]; (ii) the concentration required for semi-maximal inhibition.

[2] = target: recombinant human non-muscle myosin 2 NM2A (Homo sapiens, UniProt P35579); assay: actomyosin steady state ATPase measurement, NM2A; type: biochemical; conditions: for IC50: concentration required for semi-maximal inhibition of ATPase; for % inhibition. complete NM2A: maximum value of inhibition of ATPase activity; for inhibition at 5 µM: read-out: % inhibition at 5 μM (or 10 μM if racemate) NM2A, 5 μM (10 μM if racemate); for inhibition at 5 µM / inhibition at 50 µM: ATPase activity; for inhibition at 50 µM: read-out: % inhibition at 50 μM (or 100 μM if racemate) NM2A, 50 μM (100 μM if racemate)
Description: as §1

[3] = target: recombinant human non-muscle myosin 2 NM2B (Homo sapiens, UniProt P35580); assay: actomyosin steady state ATPase measurement, NM2B; type: biochemical
recombinant human non-muscle myosin 2 NM2B, sequence (P35580 whole entry): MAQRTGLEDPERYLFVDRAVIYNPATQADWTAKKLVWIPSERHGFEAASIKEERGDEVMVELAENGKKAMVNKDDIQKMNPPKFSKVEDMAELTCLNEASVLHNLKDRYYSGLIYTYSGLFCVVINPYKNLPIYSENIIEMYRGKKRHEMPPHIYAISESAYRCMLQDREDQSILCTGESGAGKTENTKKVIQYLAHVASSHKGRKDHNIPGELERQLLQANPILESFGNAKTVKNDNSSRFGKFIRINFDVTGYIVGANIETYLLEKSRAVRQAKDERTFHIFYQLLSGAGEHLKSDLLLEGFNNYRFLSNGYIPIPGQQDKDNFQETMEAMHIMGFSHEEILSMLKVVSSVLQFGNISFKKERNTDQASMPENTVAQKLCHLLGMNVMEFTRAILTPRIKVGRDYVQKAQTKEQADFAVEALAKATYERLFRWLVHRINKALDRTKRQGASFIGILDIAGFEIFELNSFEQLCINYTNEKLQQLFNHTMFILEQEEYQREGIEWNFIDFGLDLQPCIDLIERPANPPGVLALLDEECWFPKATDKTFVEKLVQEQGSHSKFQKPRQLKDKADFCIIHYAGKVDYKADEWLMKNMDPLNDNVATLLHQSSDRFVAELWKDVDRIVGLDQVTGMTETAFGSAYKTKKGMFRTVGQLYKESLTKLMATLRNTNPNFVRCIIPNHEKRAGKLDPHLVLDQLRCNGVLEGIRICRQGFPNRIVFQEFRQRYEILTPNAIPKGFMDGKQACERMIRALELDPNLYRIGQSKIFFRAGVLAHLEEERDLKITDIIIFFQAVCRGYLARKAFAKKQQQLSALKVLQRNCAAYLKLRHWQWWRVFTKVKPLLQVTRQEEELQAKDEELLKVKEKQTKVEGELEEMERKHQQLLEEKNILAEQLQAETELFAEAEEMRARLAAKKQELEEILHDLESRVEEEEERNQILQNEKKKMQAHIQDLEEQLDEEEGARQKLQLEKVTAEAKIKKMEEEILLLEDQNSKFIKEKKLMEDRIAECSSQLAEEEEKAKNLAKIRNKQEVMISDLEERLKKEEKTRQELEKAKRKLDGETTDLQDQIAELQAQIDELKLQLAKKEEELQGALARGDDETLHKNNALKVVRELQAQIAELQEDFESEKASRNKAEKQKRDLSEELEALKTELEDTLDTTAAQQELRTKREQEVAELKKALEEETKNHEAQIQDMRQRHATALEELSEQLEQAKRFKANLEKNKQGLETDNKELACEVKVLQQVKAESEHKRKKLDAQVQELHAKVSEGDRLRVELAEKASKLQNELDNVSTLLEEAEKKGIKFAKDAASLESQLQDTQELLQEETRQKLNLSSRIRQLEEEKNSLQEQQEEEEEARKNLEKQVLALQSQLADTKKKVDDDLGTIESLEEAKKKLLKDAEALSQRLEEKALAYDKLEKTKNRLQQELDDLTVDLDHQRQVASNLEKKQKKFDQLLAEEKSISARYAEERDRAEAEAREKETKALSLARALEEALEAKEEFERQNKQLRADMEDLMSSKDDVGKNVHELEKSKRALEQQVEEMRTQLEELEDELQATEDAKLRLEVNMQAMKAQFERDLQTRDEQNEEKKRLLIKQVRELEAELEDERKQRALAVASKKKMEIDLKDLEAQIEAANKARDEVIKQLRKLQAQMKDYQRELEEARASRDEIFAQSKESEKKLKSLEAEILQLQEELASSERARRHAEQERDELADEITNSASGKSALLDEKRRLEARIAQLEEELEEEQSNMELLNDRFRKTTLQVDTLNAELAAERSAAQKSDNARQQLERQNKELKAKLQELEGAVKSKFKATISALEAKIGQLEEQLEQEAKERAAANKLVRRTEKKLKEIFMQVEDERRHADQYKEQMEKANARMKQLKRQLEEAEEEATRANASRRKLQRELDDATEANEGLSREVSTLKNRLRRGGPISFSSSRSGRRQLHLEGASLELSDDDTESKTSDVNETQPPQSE
Description: as §1

[4] = target: recombinant human non-muscle myosin 2 NM2C (Homo sapiens, UniProt Q7Z406); assay: actomyosin steady state ATPase measurement, NM2C; type: biochemical; conditions: for IC50: concentration required for semi-maximal inhibition of ATPase; for % inhibition. complete NM2C: maximum value of inhibition of ATPase activity; for inhibition at 5 µM: read-out: % inhibition at 5 μM (or 10 μM if racemate) NM2C, 5 μM (10 μM if racemate); for inhibition at 5 µM / inhibition at 50 µM: ATPase activity; for inhibition at 50 µM: read-out: % inhibition at 50 μM (or 100 μM if racemate) NM2C, 50 μM (100 μM if racemate)
recombinant human non-muscle myosin 2 NM2C, sequence (Q7Z406 whole entry): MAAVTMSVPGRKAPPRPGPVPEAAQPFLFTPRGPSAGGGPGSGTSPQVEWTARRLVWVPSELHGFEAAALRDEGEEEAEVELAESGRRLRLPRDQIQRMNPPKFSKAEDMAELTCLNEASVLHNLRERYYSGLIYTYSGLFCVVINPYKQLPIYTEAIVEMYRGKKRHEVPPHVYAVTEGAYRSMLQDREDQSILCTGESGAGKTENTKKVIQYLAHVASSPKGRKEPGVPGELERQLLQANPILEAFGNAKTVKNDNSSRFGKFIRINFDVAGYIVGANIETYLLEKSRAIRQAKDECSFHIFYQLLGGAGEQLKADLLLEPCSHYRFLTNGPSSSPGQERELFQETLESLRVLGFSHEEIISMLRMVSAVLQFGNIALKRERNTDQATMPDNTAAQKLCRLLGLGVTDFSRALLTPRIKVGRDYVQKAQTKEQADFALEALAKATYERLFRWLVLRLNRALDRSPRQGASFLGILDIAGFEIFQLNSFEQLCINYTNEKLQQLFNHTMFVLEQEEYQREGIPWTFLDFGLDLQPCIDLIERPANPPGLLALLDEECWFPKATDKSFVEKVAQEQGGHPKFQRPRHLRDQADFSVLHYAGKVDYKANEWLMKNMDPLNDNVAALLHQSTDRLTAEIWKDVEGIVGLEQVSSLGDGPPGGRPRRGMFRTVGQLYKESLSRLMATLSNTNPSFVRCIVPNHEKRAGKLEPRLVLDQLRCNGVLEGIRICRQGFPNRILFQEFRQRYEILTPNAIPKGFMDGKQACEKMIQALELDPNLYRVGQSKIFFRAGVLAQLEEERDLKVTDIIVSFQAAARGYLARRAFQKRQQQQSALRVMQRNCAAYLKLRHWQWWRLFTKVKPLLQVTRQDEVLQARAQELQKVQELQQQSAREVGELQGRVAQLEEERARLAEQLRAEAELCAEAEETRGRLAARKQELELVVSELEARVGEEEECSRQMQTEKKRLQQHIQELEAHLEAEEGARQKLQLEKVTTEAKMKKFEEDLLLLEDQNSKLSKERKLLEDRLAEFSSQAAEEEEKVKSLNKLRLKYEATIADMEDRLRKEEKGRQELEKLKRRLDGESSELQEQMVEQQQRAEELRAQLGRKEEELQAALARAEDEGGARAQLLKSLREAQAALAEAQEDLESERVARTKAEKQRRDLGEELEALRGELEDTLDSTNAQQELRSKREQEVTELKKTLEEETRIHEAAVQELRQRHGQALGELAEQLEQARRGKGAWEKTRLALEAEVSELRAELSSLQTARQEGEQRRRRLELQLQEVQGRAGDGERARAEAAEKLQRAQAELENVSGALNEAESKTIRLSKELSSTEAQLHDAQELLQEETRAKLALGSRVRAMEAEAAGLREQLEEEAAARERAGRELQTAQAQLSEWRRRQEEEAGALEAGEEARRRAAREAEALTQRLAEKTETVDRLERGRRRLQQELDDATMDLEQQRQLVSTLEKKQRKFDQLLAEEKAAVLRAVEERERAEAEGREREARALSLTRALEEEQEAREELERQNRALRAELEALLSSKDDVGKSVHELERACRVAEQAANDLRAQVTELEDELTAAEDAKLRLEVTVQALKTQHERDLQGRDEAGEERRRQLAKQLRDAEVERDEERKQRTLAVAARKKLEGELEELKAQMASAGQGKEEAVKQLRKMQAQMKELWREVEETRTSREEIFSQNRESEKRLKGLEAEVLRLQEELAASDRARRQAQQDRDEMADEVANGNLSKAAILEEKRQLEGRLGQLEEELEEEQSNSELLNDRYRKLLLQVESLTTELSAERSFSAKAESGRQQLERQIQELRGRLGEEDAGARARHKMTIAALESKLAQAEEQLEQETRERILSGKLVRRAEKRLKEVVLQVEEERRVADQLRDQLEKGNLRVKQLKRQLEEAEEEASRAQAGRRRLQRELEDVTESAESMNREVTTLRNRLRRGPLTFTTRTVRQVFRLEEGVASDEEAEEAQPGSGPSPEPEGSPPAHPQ
Description: as §1

[5] = target: T1, isolated porcine cardiac ventricular myocardium (cardiac) (Sus scrofa, UniProt P79293); assay: actomyosin steady state ATPase measurement, cardiac myosin; type: biochemical; conditions: for IC50: concentration required for semi-maximal inhibition of ATPase; for % inhibition. complete cardiac: maximum value of inhibition of ATPase activity; for inhibition at 5 µM: read-out: % inhibition at 5 μM (or 10 μM if racemate) cardiac, 5 μM (10 μM if racemate); for inhibition at 5 µM / inhibition at 50 µM: ATPase activity; for inhibition at 50 µM: read-out: % inhibition at 50 μM (or 100 μM if racemate) cardiac, 50 μM (100 μM if racemate)
T1 construct: isolated porcine cardiac ventricular myocardium (cardiac); from tissue; host or cells: porcine cardiac ventricle
Description: as §1

[6] = system: isolated rabbit skeletal muscle myosin (skeletal); assay: actomyosin steady state ATPase measurement, skeletal muscle myosin; type: biochemical; conditions: for % inhibition at 5 μM (or 10 μM if racemate) Skeletal: 5 μM (10 μM if racemate); for % inhibition at 5 μM (or 10 μM if racemate) Skeletal / % inhibition at 50 μM (or 100 μM if racemate) Skeletal: ATPase activity; for % inhibition at 50 μM (or 100 μM if racemate) Skeletal: 50 μM (100 μM if racemate); for IC50: concentration required for semi-maximal inhibition of ATPase; for % inhibition. complete Skeletal: maximum value of inhibition of ATPase activity
Description: as §1

[7] = target: isolated smooth muscle myosin (UniProt P10587); type: biochemical, chamois; conditions: concentration required for semi-maximal inhibition of ATPase
Description: (ii) the concentration required for semi-maximal inhibition.

[8] = target: isolated smooth muscle myosin (UniProt P10587); type: biochemical, chamois; conditions: for % inhibition at 5 μM (or 10 μM if racemate) Smooth: 5 μM (10 μM if racemate); for % inhibition at 5 μM (or 10 μM if racemate) Smooth / % inhibition at 50 μM (or 100 μM if racemate) Smooth: ATPase activity; for % inhibition at 50 μM (or 100 μM if racemate) Smooth: 50 μM (100 μM if racemate); for % inhibition. complete Smooth: maximum value of inhibition of ATPase activity
[9] = solubility in PBS in the presence of 1% DMSO; type: physicochemical; conditions: phosphate buffered saline with 1% DMSO, aqueous buffer, kinetic from dmso stock, PBS w/o Mg, Ca
M. quadriceps femoris = assay: isometric force measurement of live, anesthetized rat M. quadriceps femoris due to electrical stimulation; type: in vivo
Method: The maximum isometric force induced by the stimulation was determined after intraperitoneal injection of some of the compounds of the invention. During the measurement, the following parameters of live anesthetized rats were continuously monitored: • a) heart rate • b) blood flow in the neck arteries • c) respiratory frequency • d) blood oxygen saturation ratio Results from live anesthetized rats are summarized in the table below.

[10] = vital parameters of live anesthetized rats monitored during isometric force measurement; type: in vivo; conditions: anesthetized rat; for Maximum change of vital parameters (%) blood flow: neck arteries
Method: The maximum isometric force induced by the stimulation was determined after intraperitoneal injection of some of the compounds of the invention. During the measurement, the following parameters of live anesthetized rats were continuously monitored: • a) heart rate • b) blood flow in the neck arteries • c) respiratory frequency • d) blood oxygen saturation ratio

SMILES: Cc1cc2c(s1)N=C1N(c3ccccc3)CCC1(O)C2=O (centres unmarked) [Compound 198, 9-Hydroxy-5-methyl-12-phenyl-4-thia-2,12-diazatricyclo[7.3.0.0^3,7]dodeca-1,3(7),5-trien-8-one]
- IC50 [1]: 5 µM
- % inhibition. complete Dicty [1]: 100%
- inhibition at 5 µM [1]: 51%
- inhibition at 50 µM [1]: 96%
- IC50 [2]: 15 µM
- % inhibition. complete NM2A [2]: 100%
- inhibition at 5 µM [2]: 26%
- inhibition at 50 µM [2]: 79%
- IC50 ([3]; concentration required for semi-maximal inhibition of ATPase): 15.1 µM
- % inhibition. complete NM2B ([3]; maximum value of inhibition of ATPase activity): 100%
- inhibition at 5 µM ([3]; read-out: % inhibition at 5 μM (or 10 μM if racemate) NM2B, 5 μM (10 μM if racemate), ATPase activity): 24%
- inhibition at 50 µM ([3]; read-out: % inhibition at 50 μM (or 100 μM if racemate) NM2B, 50 μM (100 μM if racemate), ATPase activity): 80%
- IC50 [4]: 6.8 µM
- % inhibition. complete NM2C [4]: 100%
- inhibition at 5 µM [4]: 51%
- inhibition at 50 µM [4]: 84%
- IC50 [5]: 4 µM
- Inhibition (%) cardiac ([5]; maximum inhibition, compounds in IC50 range 3-6 μM): 100%
- % inhibition. complete cardiac [5]: 100%
- inhibition at 5 µM [5]: 64%
- inhibition at 50 µM [5]: 89%
- % inhibition at 5 μM (or 10 μM if racemate) Skeletal [6]: 90%
- % inhibition at 50 μM (or 100 μM if racemate) Skeletal [6]: 99%
- IC50 [6]: 1 µM
- % inhibition. complete Skeletal [6]: 100%
- IC50 [7]: 7.6 µM
- % inhibition at 5 μM (or 10 μM if racemate) Smooth [8]: 44%
- % inhibition at 50 μM (or 100 μM if racemate) Smooth [8]: 88%
- % inhibition. complete Smooth [8]: 100%

SMILES: Nc1ccc(N2CC[C@@]3(O)C(=O)c4ccsc4N=C23)cc1 [Compound 210, (9S)-12-(4-aminophenyl)-9-hydroxy-4-thia-2,12-diazatricyclo[7.3.0.0^3,7]dodeca-1,3(7),5-trien-8-one]
- IC50 [1]: > 100 µM
- % inhibition. complete Dicty [1]: 100%
- inhibition at 5 µM [1]: 3%
- inhibition at 50 µM [1]: 34%
- IC50 [2]: > 100 µM
- % inhibition. complete NM2A [2]: 100%
- inhibition at 5 µM [2]: 0%
- inhibition at 50 µM [2]: 14%
- IC50 [4]: 5.2 µM
- % inhibition. complete NM2C [4]: 41%
- inhibition at 5 µM [4]: 18%
- inhibition at 50 µM [4]: 38%
- IC50 [5]: 6 µM
- % inhibition. complete cardiac [5]: 82%
- inhibition at 5 µM [5]: 36%
- inhibition at 50 µM [5]: 73%
- % inhibition at 5 μM (or 10 μM if racemate) Skeletal [6]: 44%
- % inhibition at 50 μM (or 100 μM if racemate) Skeletal [6]: 84%
- IC50 [6]: 5.6 µM
- % inhibition. complete Skeletal [6]: 94%
- IC50 [7]: 12.5 µM
- solubility [9]: 1360 µM
- % inhibition at 5 μM (or 10 μM if racemate) Smooth [8]: 9%
- % inhibition at 50 μM (or 100 μM if racemate) Smooth [8]: 28%
- % inhibition. complete Smooth [8]: 37%

SMILES: Cc1cc2c(s1)N=C1N(c3ccc(OC(F)(F)F)cc3)CCC1(O)C2=O (centres unmarked) [Compound 223, 9-Hydroxy-5-methyl-12-[4-(trifluoromethoxy)phenyl]-4-thia-2,12-diazatricyclo[7.3.0.0^3,7]dodeca-1,3(7),5-trien-8-one]
- IC50 [1]: 11.1 µM
- % inhibition. complete Dicty [1]: 100%
- inhibition at 5 µM [1]: 21%
- inhibition at 50 µM [1]: 96%
- IC50 [4]: 3 µM
- % inhibition. complete NM2C [4]: 88%
- inhibition at 5 µM [4]: 52%
- inhibition at 50 µM [4]: 82%
- IC50 [5]: 2.2 µM
- % inhibition. complete cardiac [5]: 98%
- inhibition at 5 µM [5]: 68%
- inhibition at 50 µM [5]: 93%
- % inhibition at 5 μM (or 10 μM if racemate) Skeletal [6]: 95%
- % inhibition at 50 μM (or 100 μM if racemate) Skeletal [6]: 95%
- IC50 [6]: 0.012 µM
- % inhibition. complete Skeletal [6]: 95%
- IC50 [7]: 1.1 µM
- Maximum change in isometric force at rear leg (%) (M. quadriceps femoris; 0.2 mg i.p.): 23%
- Maximum change in isometric force at rear leg (%) (M. quadriceps femoris; 1 mg i.p.): 25%
- Maximum change of vital parameters (%) heart rate ([10]; 0.2 mg i.p.): 5%
- Maximum change of vital parameters (%) oxygen saturation ([10]; 0.2 mg i.p.): −10%
- Maximum change of vital parameters (%) respiratory frequency ([10]; 0.2 mg i.p.): −13%
- Maximum change of vital parameters (%) blood flow ([10]; 0.2 mg i.p.): 8%
- Maximum change of vital parameters (%) heart rate ([10]; 1 mg i.p.): 19%
- Maximum change of vital parameters (%) oxygen saturation ([10]; 1 mg i.p.): −7%
- Maximum change of vital parameters (%) respiratory frequency ([10]; 1 mg i.p.): −22%
- Maximum change of vital parameters (%) blood flow ([10]; 1 mg i.p.): 25%
- % inhibition at 5 μM (or 10 μM if racemate) Smooth [8]: 79%
- % inhibition at 50 μM (or 100 μM if racemate) Smooth [8]: 99%
- % inhibition. complete Smooth [8]: 100%

SMILES: O=C1c2ccncc2N=C2N(c3ccc(OC(F)(F)F)cc3)CCC12O (centres unmarked) [Compound 238, 3a-Hydroxy-1-[4-(trifluoromethoxy)phenyl]-1H,2H,3H,3aH,4H-pyrrolo[2,3-b]1,7-naphthyridin-4-one]
- IC50 [1]: 3.5 µM
- Inhibition (%) Dicty ([1]; maximum inhibition, compounds in IC50 range 1-11 μM): 41%
- % inhibition. complete Dicty [1]: 41%
- inhibition at 5 µM [1]: 24%
- inhibition at 50 µM [1]: 38%
- IC50 [4]: 2.1 µM
- % inhibition. complete NM2C [4]: 40%
- inhibition at 5 µM [4]: 27%
- inhibition at 50 µM [4]: 38%
- IC50 [5]: 59 µM
- % inhibition. complete cardiac [5]: 100%
- inhibition at 5 µM [5]: 2%
- inhibition at 50 µM [5]: 47%
- % inhibition at 5 μM (or 10 μM if racemate) Skeletal [6]: 80%
- % inhibition at 50 μM (or 100 μM if racemate) Skeletal [6]: 93%
- IC50 [6]: 0.95 µM
- % inhibition. complete Skeletal [6]: 96%
- IC50 [7]: 6.3 µM
- Maximum change in isometric force at rear leg (%) (M. quadriceps femoris; 6 mg i.p.): 40%
- Maximum change of vital parameters (%) heart rate ([10]; 6 mg i.p.): 3%
- Maximum change of vital parameters (%) oxygen saturation ([10]; 6 mg i.p.): −12%
- Maximum change of vital parameters (%) respiratory frequency ([10]; 6 mg i.p.): −18%
- Maximum change of vital parameters (%) blood flow ([10]; 6 mg i.p.): −10%
- % inhibition at 5 μM (or 10 μM if racemate) Smooth [8]: 13%
- % inhibition at 50 μM (or 100 μM if racemate) Smooth [8]: 28%
- % inhibition. complete Smooth [8]: 31%
